Numbers after ± are expanded uncertainties.
Assay: xn = mol fraction of the nth substance listed
Conditions: 101.3 kPa, Liquid; for viscosity: Capillary tube (Ostwald / Ubbelohde) method; for electrical conductivity: Shanghai Precision & Scientific Instrument Co., LTD (DDS-307)

SMILES | viscosity (288.15 K, x2 = 0.2) | viscosity (288.15 K, x2 = 0.48) | electrical conductivity (288.15 K, x2 = 0.2) | electrical conductivity (288.15 K, x2 = 0.48) | viscosity (293.15 K, x2 = 0.2) | viscosity (293.15 K, x2 = 0.48) | electrical conductivity (293.15 K, x2 = 0.2) | electrical conductivity (293.15 K, x2 = 0.48) | viscosity (298.15 K, x2 = 0.2) | viscosity (298.15 K, x2 = 0.48) | electrical conductivity (298.15 K, x2 = 0.2) | electrical conductivity (298.15 K, x2 = 0.48) | viscosity (303.15 K, x2 = 0.2) | viscosity (303.15 K, x2 = 0.48) | electrical conductivity (303.15 K, x2 = 0.2) | electrical conductivity (303.15 K, x2 = 0.48) | viscosity (308.15 K, x2 = 0.2) | viscosity (308.15 K, x2 = 0.48) | electrical conductivity (308.15 K, x2 = 0.2) | electrical conductivity (308.15 K, x2 = 0.48)
CCCCn1cc[n+](C)c1.F[P-](F)(F)(F)(F)F [1-butyl-3-methylimidazolium hexafluorophosphate] + CC(C)=O | 165 ± 6.9 mPa·s | 25.1 ± 0.9 mPa·s | 0.00298 ± 0.00018 S/m | 0.00925 ± 0.00056 S/m | 127 ± 5.1 mPa·s | 21.2 ± 0.7 mPa·s | 0.00342 ± 0.00021 S/m | 0.00965 ± 0.00058 S/m | 100.2 ± 3.9 mPa·s | 18.2 ± 0.6 mPa·s | 0.00375 ± 0.00023 S/m | 0.0102 ± 0.00061 S/m | 79.8 ± 3 mPa·s | 16 ± 0.5 mPa·s | 0.00429 ± 0.00026 S/m | 0.0106 ± 0.00064 S/m | 64.1 ± 2.4 mPa·s | 13.8 ± 0.5 mPa·s | 0.00467 ± 0.00028 S/m | 0.011 ± 0.00066 S/m
CCCCn1cc[n+](C)c1.F[P-](F)(F)(F)(F)F [1-butyl-3-methylimidazolium hexafluorophosphate] + CCO | 200.6 ± 8.7 mPa·s | 48 ± 1.7 mPa·s | 0.00302 ± 0.00018 S/m | 0.0068 ± 0.00041 S/m | 148.1 ± 6.2 mPa·s | 37.7 ± 1.3 mPa·s | 0.00336 ± 0.0002 S/m | 0.00733 ± 0.00044 S/m | 113.7 ± 4.5 mPa·s | 30.1 ± 1 mPa·s | 0.0038 ± 0.00023 S/m | 0.00798 ± 0.00048 S/m | 88.4 ± 3.4 mPa·s | 24.8 ± 0.8 mPa·s | 0.0043 ± 0.00026 S/m | 0.00863 ± 0.00052 S/m | 71.5 ± 2.7 mPa·s | 21 ± 0.7 mPa·s | 0.00475 ± 0.00029 S/m | 0.00933 ± 0.00056 S/m
CCCCn1cc[n+](C)c1.F[P-](F)(F)(F)(F)F [1-butyl-3-methylimidazolium hexafluorophosphate] + O |  |  |  |  | 166.4 ± 9.4 mPa·s |  | 0.0033 ± 0.0002 S/m |  | 128.7 ± 5.2 mPa·s |  | 0.00372 ± 0.00022 S/m |  | 99.2 ± 3.9 mPa·s |  | 0.00429 ± 0.00026 S/m |  | 78.2 ± 3.4 mPa·s |  | 0.00478 ± 0.00029 S/m | 

Source: the NIST ThermoML archive (doi:10.1021/je034078h)
